Assay results reported in the kinase profiling compilation of Christmann-Franck et al. (2016).
Each block holds one compound with its values, some of them ahead of it.

Columns and labels:
Assay in all cases: radiometric filter-binding kinase assay
PRKCG (human) = PRKCG (human) (UniProt P05129)
TLK1 (human) = TLK1 (human) (UniProt Q9UKI8)
WNK1 (human) = WNK1 (human) (UniProt Q9H4A3)
EIF2AK3 (human) = EIF2AK3 (human) (UniProt Q9NZJ5)
SIK3 (human) = SIK3 (human) (UniProt Q9Y2K2)
ZAP70 (human) = ZAP70 (human) (UniProt P43403)
ABL1 (human) = ABL1 (human) (UniProt P00519)
STK24 (human) = STK24 (human) (UniProt Q9Y6E0)
STK16 (human) = STK16 (human) (UniProt O75716)
DDR2 (human) = DDR2 (human) (UniProt Q16832)
SIK2 (human) = SIK2 (human) (UniProt Q9H0K1)
TTBK1 (human) = TTBK1 (human) (UniProt Q5TCY1)
[1] = test system: OXSR1 (human), O95747 [T185E]
CDK9 CCNT1 (human) = CDK9 CCNT1 (human) (UniProt P50750+O60563)
MYLK (human) = MYLK (human) (UniProt Q15746)
TESK1 (human) = TESK1 (human) (UniProt Q15569)
TSSK1B (human) = TSSK1B (human) (UniProt Q9BXA7)
TEK (human) = TEK (human) (UniProt Q02763)
STK33 (human) = STK33 (human) (UniProt Q9BYT3)
CSNK1G2 (human) = CSNK1G2 (human) (UniProt P78368)
IRAK1 (human) = IRAK1 (human) (UniProt P51617)
PTK6 (human) = PTK6 (human) (UniProt Q13882)
ULK1 (human) = ULK1 (human) (UniProt O75385)
ULK2 (human) = ULK2 (human) (UniProt Q8IYT8)
Sequence of ULK2 (human) (Q8IYT8 whole entry, looked up): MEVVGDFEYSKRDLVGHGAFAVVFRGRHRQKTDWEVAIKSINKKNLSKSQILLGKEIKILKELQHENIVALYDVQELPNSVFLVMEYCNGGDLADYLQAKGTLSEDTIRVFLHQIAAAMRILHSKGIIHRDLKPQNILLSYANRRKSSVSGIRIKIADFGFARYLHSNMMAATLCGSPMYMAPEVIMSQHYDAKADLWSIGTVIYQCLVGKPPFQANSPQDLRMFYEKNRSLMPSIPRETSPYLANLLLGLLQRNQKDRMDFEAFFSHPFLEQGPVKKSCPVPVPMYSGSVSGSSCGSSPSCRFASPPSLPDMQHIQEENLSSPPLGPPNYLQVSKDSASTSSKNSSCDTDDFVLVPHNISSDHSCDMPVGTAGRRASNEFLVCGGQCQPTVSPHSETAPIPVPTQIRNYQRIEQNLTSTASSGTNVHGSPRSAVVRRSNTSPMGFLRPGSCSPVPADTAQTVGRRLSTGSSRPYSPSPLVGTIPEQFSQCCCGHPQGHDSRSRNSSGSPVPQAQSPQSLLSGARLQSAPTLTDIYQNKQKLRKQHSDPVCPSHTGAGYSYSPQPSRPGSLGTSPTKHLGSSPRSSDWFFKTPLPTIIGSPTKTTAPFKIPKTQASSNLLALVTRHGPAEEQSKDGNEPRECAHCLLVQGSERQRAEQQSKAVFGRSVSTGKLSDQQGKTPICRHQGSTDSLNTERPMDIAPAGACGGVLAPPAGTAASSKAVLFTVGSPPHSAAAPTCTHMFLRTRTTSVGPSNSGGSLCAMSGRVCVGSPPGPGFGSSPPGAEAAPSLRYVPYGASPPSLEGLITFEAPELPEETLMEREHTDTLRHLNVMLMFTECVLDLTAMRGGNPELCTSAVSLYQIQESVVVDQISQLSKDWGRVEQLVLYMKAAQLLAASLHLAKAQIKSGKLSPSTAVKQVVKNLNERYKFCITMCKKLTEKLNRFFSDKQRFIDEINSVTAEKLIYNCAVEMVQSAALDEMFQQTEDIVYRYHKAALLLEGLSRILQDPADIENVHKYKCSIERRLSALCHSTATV

Sequence of STK16 (human) (O75716 whole entry, looked up): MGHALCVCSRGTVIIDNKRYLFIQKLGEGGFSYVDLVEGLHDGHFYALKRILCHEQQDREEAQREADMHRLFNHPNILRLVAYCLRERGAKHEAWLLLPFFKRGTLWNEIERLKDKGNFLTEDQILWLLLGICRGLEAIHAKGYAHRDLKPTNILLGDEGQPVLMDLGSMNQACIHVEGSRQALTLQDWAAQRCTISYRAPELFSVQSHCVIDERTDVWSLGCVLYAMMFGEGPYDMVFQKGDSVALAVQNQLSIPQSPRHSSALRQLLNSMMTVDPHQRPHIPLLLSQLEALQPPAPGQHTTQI
Sequence of MYLK (human) (Q15746 whole entry, looked up): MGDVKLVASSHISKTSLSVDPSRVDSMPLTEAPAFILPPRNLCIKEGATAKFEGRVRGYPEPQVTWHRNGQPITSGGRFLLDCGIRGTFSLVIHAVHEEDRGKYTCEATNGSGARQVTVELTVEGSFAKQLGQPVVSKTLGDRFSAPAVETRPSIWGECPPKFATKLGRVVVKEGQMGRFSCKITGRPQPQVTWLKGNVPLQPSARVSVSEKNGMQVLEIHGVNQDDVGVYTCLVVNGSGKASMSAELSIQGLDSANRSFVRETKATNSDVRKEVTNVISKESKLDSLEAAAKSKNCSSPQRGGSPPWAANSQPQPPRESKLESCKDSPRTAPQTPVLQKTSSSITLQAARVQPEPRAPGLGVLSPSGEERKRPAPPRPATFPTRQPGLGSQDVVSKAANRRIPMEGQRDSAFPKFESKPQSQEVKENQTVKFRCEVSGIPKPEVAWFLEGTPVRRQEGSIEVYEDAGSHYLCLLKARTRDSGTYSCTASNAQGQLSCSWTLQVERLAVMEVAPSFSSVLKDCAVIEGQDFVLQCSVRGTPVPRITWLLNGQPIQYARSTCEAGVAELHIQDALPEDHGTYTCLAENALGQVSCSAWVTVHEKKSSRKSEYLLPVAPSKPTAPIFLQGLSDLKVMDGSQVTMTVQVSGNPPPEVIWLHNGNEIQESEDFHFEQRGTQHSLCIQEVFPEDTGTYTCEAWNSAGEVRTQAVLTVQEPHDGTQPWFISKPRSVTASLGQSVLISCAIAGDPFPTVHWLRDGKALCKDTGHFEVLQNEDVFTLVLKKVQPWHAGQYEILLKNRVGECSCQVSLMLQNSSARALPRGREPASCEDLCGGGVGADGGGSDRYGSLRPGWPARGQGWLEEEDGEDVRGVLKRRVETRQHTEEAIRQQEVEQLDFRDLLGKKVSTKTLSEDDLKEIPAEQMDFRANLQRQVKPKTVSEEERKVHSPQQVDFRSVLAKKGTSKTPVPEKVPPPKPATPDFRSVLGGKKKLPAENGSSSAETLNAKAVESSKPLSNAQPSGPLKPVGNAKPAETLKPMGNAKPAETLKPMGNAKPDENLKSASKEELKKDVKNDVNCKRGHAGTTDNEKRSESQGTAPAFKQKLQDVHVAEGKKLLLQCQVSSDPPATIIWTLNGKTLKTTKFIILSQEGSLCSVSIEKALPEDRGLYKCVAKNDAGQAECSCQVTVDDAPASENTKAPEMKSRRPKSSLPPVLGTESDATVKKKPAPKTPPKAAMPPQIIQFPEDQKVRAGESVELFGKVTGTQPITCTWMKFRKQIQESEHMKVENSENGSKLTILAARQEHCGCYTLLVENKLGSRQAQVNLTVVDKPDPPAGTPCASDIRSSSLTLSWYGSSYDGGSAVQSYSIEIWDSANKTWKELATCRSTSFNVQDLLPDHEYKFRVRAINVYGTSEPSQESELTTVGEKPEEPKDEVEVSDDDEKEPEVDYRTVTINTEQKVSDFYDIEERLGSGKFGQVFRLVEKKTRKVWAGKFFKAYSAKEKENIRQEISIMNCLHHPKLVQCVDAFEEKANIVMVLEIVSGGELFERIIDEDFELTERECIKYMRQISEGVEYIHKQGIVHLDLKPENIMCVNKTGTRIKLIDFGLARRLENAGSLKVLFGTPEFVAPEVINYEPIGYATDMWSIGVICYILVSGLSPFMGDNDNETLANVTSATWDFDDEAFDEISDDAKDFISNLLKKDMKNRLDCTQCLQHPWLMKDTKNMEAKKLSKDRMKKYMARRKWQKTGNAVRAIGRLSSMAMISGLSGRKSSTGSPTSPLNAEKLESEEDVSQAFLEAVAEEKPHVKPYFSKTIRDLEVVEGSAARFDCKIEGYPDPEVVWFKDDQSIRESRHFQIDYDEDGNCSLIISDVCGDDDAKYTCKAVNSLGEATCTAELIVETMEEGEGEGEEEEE
Sequence of TLK1 (human) (Q9UKI8 whole entry, looked up): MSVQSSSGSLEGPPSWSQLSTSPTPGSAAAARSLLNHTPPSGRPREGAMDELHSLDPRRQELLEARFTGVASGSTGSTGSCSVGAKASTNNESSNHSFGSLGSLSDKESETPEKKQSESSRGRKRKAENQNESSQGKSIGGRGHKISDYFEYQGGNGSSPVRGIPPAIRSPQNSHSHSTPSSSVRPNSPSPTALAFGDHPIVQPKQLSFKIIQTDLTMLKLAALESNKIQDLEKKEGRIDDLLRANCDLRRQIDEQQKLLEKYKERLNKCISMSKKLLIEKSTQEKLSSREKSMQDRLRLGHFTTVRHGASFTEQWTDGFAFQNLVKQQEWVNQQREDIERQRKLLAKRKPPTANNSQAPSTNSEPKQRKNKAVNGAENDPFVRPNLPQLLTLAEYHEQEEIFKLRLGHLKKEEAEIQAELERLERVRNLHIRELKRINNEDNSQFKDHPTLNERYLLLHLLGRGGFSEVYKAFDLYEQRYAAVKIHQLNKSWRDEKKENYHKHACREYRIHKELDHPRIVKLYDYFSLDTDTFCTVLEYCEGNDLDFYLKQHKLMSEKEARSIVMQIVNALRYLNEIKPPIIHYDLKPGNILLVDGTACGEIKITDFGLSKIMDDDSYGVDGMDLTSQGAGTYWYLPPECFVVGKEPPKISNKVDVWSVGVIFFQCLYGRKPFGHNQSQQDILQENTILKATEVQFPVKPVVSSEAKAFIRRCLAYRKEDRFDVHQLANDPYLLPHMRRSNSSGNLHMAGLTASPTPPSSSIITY
Sequence of SIK2 (human) (Q9H0K1 whole entry, looked up): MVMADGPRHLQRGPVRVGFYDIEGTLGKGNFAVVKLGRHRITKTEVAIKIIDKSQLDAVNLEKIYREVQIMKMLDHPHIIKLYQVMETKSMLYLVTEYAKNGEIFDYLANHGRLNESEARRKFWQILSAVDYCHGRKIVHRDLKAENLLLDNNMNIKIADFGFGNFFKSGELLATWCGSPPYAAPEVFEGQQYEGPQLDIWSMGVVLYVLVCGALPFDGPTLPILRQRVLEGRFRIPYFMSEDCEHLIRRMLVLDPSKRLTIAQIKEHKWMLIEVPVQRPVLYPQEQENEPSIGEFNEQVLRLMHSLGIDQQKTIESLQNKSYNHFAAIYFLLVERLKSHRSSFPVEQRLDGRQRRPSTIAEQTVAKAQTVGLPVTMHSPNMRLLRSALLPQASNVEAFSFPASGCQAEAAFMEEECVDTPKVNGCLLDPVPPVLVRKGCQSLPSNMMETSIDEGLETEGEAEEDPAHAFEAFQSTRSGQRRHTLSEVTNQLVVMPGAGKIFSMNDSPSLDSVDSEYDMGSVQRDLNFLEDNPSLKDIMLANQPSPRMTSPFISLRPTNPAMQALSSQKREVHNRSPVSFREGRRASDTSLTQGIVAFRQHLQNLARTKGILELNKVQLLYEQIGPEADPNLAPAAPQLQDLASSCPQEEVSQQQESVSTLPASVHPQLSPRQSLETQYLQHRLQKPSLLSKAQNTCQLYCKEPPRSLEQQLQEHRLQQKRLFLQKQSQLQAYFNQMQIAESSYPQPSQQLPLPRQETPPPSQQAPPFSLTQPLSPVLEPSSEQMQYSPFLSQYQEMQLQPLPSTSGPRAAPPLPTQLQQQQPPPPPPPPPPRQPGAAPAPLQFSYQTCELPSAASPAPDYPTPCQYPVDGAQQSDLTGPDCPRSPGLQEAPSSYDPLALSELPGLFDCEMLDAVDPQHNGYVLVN

residual activity (PRKCG (human); compound 10.0 µM): 87%
residual activity (TLK1 (human); compound 1.0 µM): 101%
residual activity (TLK1 (human); compound 10.0 µM): 115%
residual activity (WNK1 (human); compound 1.0 µM): 109%
residual activity (WNK1 (human); compound 10.0 µM): 104%
residual activity (EIF2AK3 (human); compound 1.0 µM): 100%
residual activity (EIF2AK3 (human); compound 10.0 µM): 100%
residual activity (SIK3 (human); compound 1.0 µM): 76%
residual activity (SIK3 (human); compound 10.0 µM): 58%
residual activity (ZAP70 (human); compound 1.0 µM): 98%
residual activity (ABL1 (human); compound 1.0 µM): 116%
residual activity (ABL1 (human); compound 10.0 µM): 100%
residual activity (STK24 (human); compound 1.0 µM): 110%
residual activity (STK24 (human); compound 10.0 µM): 110%
residual activity (STK16 (human); compound 1.0 µM): 105%
residual activity (STK16 (human); compound 10.0 µM): 104%
residual activity (DDR2 (human); compound 1.0 µM): 107%
residual activity (SIK2 (human); compound 1.0 µM): 106%
residual activity (SIK2 (human); compound 10.0 µM): 78%
residual activity (TTBK1 (human); compound 1.0 µM): 112%
residual activity (TTBK1 (human); compound 10.0 µM): 99%
residual activity ([1]; compound 1.0 µM): 112%
residual activity ([1]; compound 10.0 µM): 103%
residual activity (CDK9 CCNT1 (human); compound 1.0 µM): 92%
residual activity (CDK9 CCNT1 (human); compound 10.0 µM): 100%
residual activity (MYLK (human); compound 0.01 µM): 116%
residual activity (MYLK (human); compound 0.1 µM): 113%
residual activity (MYLK (human); compound 1.0 µM): 99%
residual activity (MYLK (human); compound 10.0 µM): 62%
residual activity (TESK1 (human); compound 1.0 µM): 91%
residual activity (TESK1 (human); compound 10.0 µM): 101%
residual activity (TSSK1B (human); compound 1.0 µM): 88%
residual activity (TSSK1B (human); compound 10.0 µM): 64%
residual activity (TEK (human); compound 1.0 µM): 105%
residual activity (TEK (human); compound 10.0 µM): 76%
residual activity (STK33 (human); compound 1.0 µM): 89%
residual activity (STK33 (human); compound 10.0 µM): 43%
residual activity (CSNK1G2 (human); compound 1.0 µM): 101%
residual activity (CSNK1G2 (human); compound 10.0 µM): 97%
residual activity (IRAK1 (human); compound 1.0 µM): 105%
residual activity (IRAK1 (human); compound 10.0 µM): 106%
residual activity (PTK6 (human); compound 1.0 µM): 127%
residual activity (PTK6 (human); compound 10.0 µM): 116%
Compound: CNc1nc(-c2ccc3c(N)n[nH]c3c2)cc(N2C[C@@H](C(=O)NC3CCCCC3)CC[C@H]2C)n1

residual activity (PRKCG (human); compound 0.1 µM): 96%
residual activity (PRKCG (human); compound 1.0 µM): 101%
residual activity (TLK1 (human); compound 0.1 µM): 99%
residual activity (TLK1 (human); compound 1.0 µM): 98%
residual activity (WNK1 (human); compound 0.1 µM): 103%
residual activity (WNK1 (human); compound 1.0 µM): 117%
residual activity (ULK1 (human); compound 0.1 µM): 37%
residual activity (ULK1 (human); compound 1.0 µM): 63%
residual activity (EIF2AK3 (human); compound 0.1 µM): 90%
residual activity (EIF2AK3 (human); compound 1.0 µM): 99%
residual activity (SIK3 (human); compound 0.1 µM): 81%
residual activity (SIK3 (human); compound 1.0 µM): 64%
residual activity (ZAP70 (human); compound 0.1 µM): 82%
residual activity (ZAP70 (human); compound 1.0 µM): 123%
residual activity (ABL1 (human); compound 0.1 µM): 77%
residual activity (ABL1 (human); compound 1.0 µM): 85%
residual activity (STK24 (human); compound 0.1 µM): 94%
residual activity (STK24 (human); compound 1.0 µM): 93%
residual activity (STK16 (human); compound 0.1 µM): 108%
residual activity (STK16 (human); compound 1.0 µM): 103%
residual activity (DDR2 (human); compound 0.1 µM): 89%
residual activity (DDR2 (human); compound 1.0 µM): 108%
residual activity (SIK2 (human); compound 0.1 µM): 78%
residual activity (SIK2 (human); compound 1.0 µM): 67%
residual activity (TTBK1 (human); compound 0.1 µM): 88%
residual activity (TTBK1 (human); compound 1.0 µM): 79%
residual activity ([1]; compound 0.1 µM): 99%
residual activity ([1]; compound 1.0 µM): 105%
residual activity (CDK9 CCNT1 (human); compound 0.1 µM): 22%
residual activity (CDK9 CCNT1 (human); compound 1.0 µM): 42%
residual activity (MYLK (human); compound 0.1 µM): 96%
residual activity (MYLK (human); compound 1.0 µM): 85%
residual activity (TESK1 (human); compound 0.1 µM): 90%
residual activity (TESK1 (human); compound 1.0 µM): 98%
residual activity (TSSK1B (human); compound 0.1 µM): 88%
residual activity (TSSK1B (human); compound 1.0 µM): 101%
residual activity (ULK2 (human); compound 0.1 µM): 50%
residual activity (ULK2 (human); compound 1.0 µM): 69%
residual activity (TEK (human); compound 0.1 µM): 94%
residual activity (TEK (human); compound 1.0 µM): 84%
residual activity (STK33 (human); compound 0.1 µM): 92%
residual activity (STK33 (human); compound 1.0 µM): 91%
residual activity (CSNK1G2 (human); compound 0.1 µM): 88%
residual activity (CSNK1G2 (human); compound 1.0 µM): 88%
residual activity (IRAK1 (human); compound 0.1 µM): 26%
residual activity (IRAK1 (human); compound 1.0 µM): 5%
residual activity (PTK6 (human); compound 0.1 µM): 81%
residual activity (PTK6 (human); compound 1.0 µM): 81%
Compound: CN(C)C/C=C/C(=O)Nc1cccc(C(=O)Nc2ccc(Nc3nccc(-c4cccnc4)n3)cc2)c1

residual activity (PRKCG (human); compound 0.1 µM): 92%
residual activity (PRKCG (human); compound 1.0 µM): 91%
residual activity (TLK1 (human); compound 0.1 µM): 99%
residual activity (TLK1 (human); compound 1.0 µM): 100%
residual activity (ULK1 (human); compound 0.1 µM): 27%
residual activity (ULK1 (human); compound 1.0 µM): 67%
residual activity (EIF2AK3 (human); compound 0.1 µM): 103%
residual activity (EIF2AK3 (human); compound 1.0 µM): 93%
residual activity (SIK3 (human); compound 0.1 µM): 88%
residual activity (SIK3 (human); compound 1.0 µM): 79%
residual activity (ZAP70 (human); compound 0.1 µM): 105%
residual activity (ABL1 (human); compound 0.1 µM): 97%
residual activity (ABL1 (human); compound 1.0 µM): 86%
residual activity (STK24 (human); compound 0.1 µM): 85%
residual activity (STK24 (human); compound 1.0 µM): 82%
residual activity (STK16 (human); compound 0.1 µM): 110%
residual activity (STK16 (human); compound 1.0 µM): 101%
residual activity (DDR2 (human); compound 0.1 µM): 106%
residual activity (DDR2 (human); compound 1.0 µM): 97%
residual activity (SIK2 (human); compound 0.1 µM): 100%
residual activity (SIK2 (human); compound 1.0 µM): 105%
residual activity (TTBK1 (human); compound 0.1 µM): 92%
residual activity (TTBK1 (human); compound 1.0 µM): 83%
residual activity ([1]; compound 0.1 µM): 96%
residual activity ([1]; compound 1.0 µM): 91%
residual activity (CDK9 CCNT1 (human); compound 0.1 µM): 85%
residual activity (CDK9 CCNT1 (human); compound 1.0 µM): 80%
residual activity (MYLK (human); compound 0.1 µM): 97%
residual activity (MYLK (human); compound 1.0 µM): 96%
residual activity (TESK1 (human); compound 0.1 µM): 89%
residual activity (TESK1 (human); compound 1.0 µM): 93%
residual activity (TSSK1B (human); compound 0.1 µM): 91%
residual activity (TSSK1B (human); compound 1.0 µM): 86%
residual activity (ULK2 (human); compound 0.1 µM): 28%
residual activity (ULK2 (human); compound 1.0 µM): 69%
residual activity (TEK (human); compound 0.1 µM): 105%
residual activity (TEK (human); compound 1.0 µM): 98%
residual activity (STK33 (human); compound 0.1 µM): 99%
residual activity (STK33 (human); compound 1.0 µM): 90%
residual activity (CSNK1G2 (human); compound 0.1 µM): 109%
residual activity (CSNK1G2 (human); compound 1.0 µM): 87%
residual activity (IRAK1 (human); compound 0.1 µM): 93%
residual activity (IRAK1 (human); compound 1.0 µM): 63%
residual activity (PTK6 (human); compound 1.0 µM): 75%
Compound: Cc1cc(NC(=O)c2cccc(NC(=O)/C=C/CN(C)C)c2)ccc1Nc1nccc(-c2cccnc2)n1

residual activity (PRKCG (human); compound 0.01 µM): 101%
residual activity (PRKCG (human); compound 0.1 µM): 104%
residual activity (PRKCG (human); compound 1.0 µM): 96%
residual activity (TLK1 (human); compound 0.01 µM): 98%
residual activity (TLK1 (human); compound 0.1 µM): 93%
residual activity (TLK1 (human); compound 1.0 µM): 93%
residual activity (WNK1 (human); compound 0.01 µM): 100%
residual activity (WNK1 (human); compound 0.1 µM): 107%
residual activity (WNK1 (human); compound 1.0 µM): 102%
residual activity (EIF2AK3 (human); compound 0.01 µM): 91%
residual activity (EIF2AK3 (human); compound 0.1 µM): 97%
residual activity (EIF2AK3 (human); compound 1.0 µM): 95%
residual activity (ZAP70 (human); compound 0.01 µM): 96%
residual activity (ZAP70 (human); compound 0.1 µM): 98%
residual activity (ZAP70 (human); compound 1.0 µM): 94%
residual activity (STK24 (human); compound 0.01 µM): 105%
residual activity (STK24 (human); compound 1.0 µM): 40%
residual activity (STK16 (human); compound 0.01 µM): 106%
residual activity (STK16 (human); compound 0.1 µM): 106%
residual activity (STK16 (human); compound 1.0 µM): 106%
residual activity (DDR2 (human); compound 0.01 µM): 17%
residual activity (DDR2 (human); compound 0.1 µM): 8%
residual activity (DDR2 (human); compound 1.0 µM): 6%
residual activity (TTBK1 (human); compound 0.01 µM): 100%
residual activity (TTBK1 (human); compound 0.1 µM): 117%
residual activity (TTBK1 (human); compound 1.0 µM): 112%
residual activity ([1]; compound 0.01 µM): 101%
residual activity ([1]; compound 0.1 µM): 93%
residual activity ([1]; compound 1.0 µM): 57%
residual activity (CDK9 CCNT1 (human); compound 0.01 µM): 104%
residual activity (CDK9 CCNT1 (human); compound 0.1 µM): 87%
residual activity (CDK9 CCNT1 (human); compound 1.0 µM): 95%
residual activity (MYLK (human); compound 0.01 µM): 99%
residual activity (MYLK (human); compound 0.1 µM): 89%
residual activity (MYLK (human); compound 1.0 µM): 91%
residual activity (TESK1 (human); compound 0.01 µM): 82%
residual activity (TESK1 (human); compound 0.1 µM): 29%
residual activity (TESK1 (human); compound 1.0 µM): 16%
residual activity (TSSK1B (human); compound 0.01 µM): 108%
residual activity (TSSK1B (human); compound 0.1 µM): 102%
residual activity (TSSK1B (human); compound 1.0 µM): 62%
residual activity (TEK (human); compound 0.01 µM): 116%
residual activity (TEK (human); compound 0.1 µM): 82%
residual activity (TEK (human); compound 1.0 µM): 42%
residual activity (STK33 (human); compound 0.01 µM): 113%
residual activity (STK33 (human); compound 0.1 µM): 106%
residual activity (STK33 (human); compound 1.0 µM): 107%
residual activity (CSNK1G2 (human); compound 0.01 µM): 96%
residual activity (CSNK1G2 (human); compound 0.1 µM): 93%
residual activity (IRAK1 (human); compound 0.01 µM): 98%
residual activity (IRAK1 (human); compound 0.1 µM): 95%
residual activity (IRAK1 (human); compound 1.0 µM): 95%
residual activity (PTK6 (human); compound 0.01 µM): 97%
residual activity (PTK6 (human); compound 0.1 µM): 24%
residual activity (PTK6 (human); compound 1.0 µM): 3%
Compound: COc1ccc(N(C(=O)Nc2c(C)cccc2C)c2cc(Nc3ccc(N4CCN(C)CC4)cc3)ncn2)c(OC)c1
